Our source for the DC50 and Dmax values is patent publication US20260317324A1, “BIFUNCTIONAL COMPOUNDS FOR DEGRADING BRAF VIA UBIQUITIN PROTEOSOME PATHWAY” (Nurix Therapeutics, Inc., priority 2023, published 2026).

This experiment addresses T1, BRAF V600E (Homo sapiens, UniProt P15056, V600E).
T1 construct: endogenous C-terminal HiBiT fusion tag on BRAF V600E allele; endogenous in cells; host or cells: A375 clone 1F10 (CRISPR-Cas9 knock-in of the HiBiT tag; parental A375 from ATCC)
Description: BRAF HiBiT degradation assay, C-terminal HiBiT-tagged BRAF V600E A375 cells (clone 1F10), Nano-Glo HiBiT Lytic assay. It counts as cell-based. Particulars: for Dmax: A-375. From the text: An A375 cell line expressing a homozygous V600E mutation was purchased from ATCC (Manassas, VA, USA). An A375 clone 1F10 cell line with an endogenous C-terminal HiBiT fusion tag on BRAF V600E allele was generated internally using CRISPR-Cas9 technology and cultured in DMEM, high glucose supplemented with 10% FBS and 1× GlutaMAX. A HCT-116 BRAF−/− cell line overexpressing the C-terminal HiBiT-tagged G466V, G469A, and D594G mutants were generated by lentiviral transduction, externally at Biosettia Inc (San Diego, CA, USA). The stably transfected cells were cultured in RPMI media supplemented with 10% FBS, 1× GlutaMAX, and 0.25 μg/ml puromycin. DMEM medium, RPMI 1640 medium, GlutaMAX, fetal bovine serum (FBS), and puromycin were purchased from Gibco (Grand Island, NY, USA). HCT-116 BRAF−/− cells were purchased from Horizon Discovery (Waterbeach, UK).
The C-terminal HiBiT tagged BRAF A375 cells (monoclonal cell line, cell clone 1F10) were seeded at a density of 10,000 cells/well in 30 μL media (DMEM, high glucose supplemented with 10% FBS and 1× GlutaMAX) in white opaque 384-well plates (Corning #3570) from column 1 to column 23. The wildtype A375 cells were seeded in column 24 at the same cell density in 30 μL media. Cells were incubated at 37° C. with 5% CO2 for 24 h.
Intermediate compound dilution series (5-point, ranging from 5 mM to 0.5 μM, 10-fold dilutions in DMSO) were prepared in a source plate (Beckman Coulter cat. no. 001-16128). Final compound dilution series (11-point, ranging from 1 μM to 0.01 nM, half-log dilutions in DMSO) were stamped into the assay plate (Corning #3570, column 1-11 and 12-22) using the Echo Acoustic Liquid Handler (Beckman Coulter). Each compound was plated in duplicate, and the total volume of compound DMSO solution was 60 nL/well (0.2% final DMSO concentration). DMSO was included in wells A23-L23 and A24-L24. The DMSO-treated HiBiT-tagged samples served as Negative Control (NC) and the DMSO-treated wildtype samples served as Background Control (BC) for the HiBiT assay.
HiBiT signal was measured by a Nano-Glo HiBiT Lytic assay (Promega cat. no. N3050). HiBiT lytic detection reagent (Nano-Glo HiBiT Lytic Buffer with 1:50 Nano-Glo HiBiT Lytic Substrate and 1:100 LgBiT Protein, 40 μL) was added using Bravo. The mixture was incubated at room temperature, in the dark, and with gentle shaking for 10 min. Luminesce units (LU) were read on an EnVision plate reader 2105 (Perkin Elmer).
Percent protein remaining and viability remaining per sample were calculated as follows: […]
% Protein remaining values were plotted as a function of compound concentration. XC50 (DC50) values were determined by fitting curves using the following equation:
For the HiBiT degradation assay, the key parameters reported include: • The dose of compound that produces 50% degradation (DC50 at 50%): • DC50 at 50%: the Fitted X value (Conc.) at Y=50 (response) • Observed Dmax (Obs. Dmax) is the percentage protein degraded at maximal compound effect relative to DMSO-treated control: […]

The mark [1] stands for this setting: A375 (BRAF V600E), DC50 at 50%: fitted conc. at Y=50.
The mark [2] stands for this setting: A375 (BRAF V600E), percentage protein degraded at maximal compound effect relative to DMSO.
Where [3] appears, read: A375 (BRAF V600E, Class 1), DC50 at 50% degradation.
Setting [4] is: A375 (BRAF V600E, Class 1), observed Dmax, % protein degraded relative to DMSO control.

A value given as a limit tells only on which side of the number the result lay.

T1 sequence (P15056 whole entry V600E, the tested form may be a part): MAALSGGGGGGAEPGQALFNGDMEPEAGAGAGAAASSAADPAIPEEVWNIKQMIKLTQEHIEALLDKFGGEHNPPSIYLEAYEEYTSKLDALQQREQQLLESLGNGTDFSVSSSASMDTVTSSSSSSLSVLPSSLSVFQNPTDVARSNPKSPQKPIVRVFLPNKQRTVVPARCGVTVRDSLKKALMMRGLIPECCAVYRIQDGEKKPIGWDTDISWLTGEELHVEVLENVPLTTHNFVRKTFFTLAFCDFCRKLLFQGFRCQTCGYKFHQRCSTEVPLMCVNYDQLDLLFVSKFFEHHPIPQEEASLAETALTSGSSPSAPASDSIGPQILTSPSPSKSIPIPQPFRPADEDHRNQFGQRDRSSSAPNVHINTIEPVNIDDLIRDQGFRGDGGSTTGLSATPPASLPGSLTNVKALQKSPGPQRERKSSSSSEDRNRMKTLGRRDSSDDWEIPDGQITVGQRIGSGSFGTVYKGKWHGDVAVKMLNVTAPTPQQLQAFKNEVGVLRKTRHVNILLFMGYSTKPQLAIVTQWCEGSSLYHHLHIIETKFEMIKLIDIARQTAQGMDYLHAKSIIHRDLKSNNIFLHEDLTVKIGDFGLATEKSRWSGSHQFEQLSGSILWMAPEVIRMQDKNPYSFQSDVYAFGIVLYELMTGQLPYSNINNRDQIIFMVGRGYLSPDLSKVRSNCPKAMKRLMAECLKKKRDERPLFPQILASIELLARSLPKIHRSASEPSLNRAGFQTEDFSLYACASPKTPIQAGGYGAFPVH

In turn, `CCN(C)S(=O)(=O)Nc1cccc(-c2nc(C)sc2-c2ccnc(Nc3ccc(N4CCN(C(=O)CC5CCN(c6ccc(C7CCC(=O)NC7=O)cn6)CC5)CC4)cn3)n2)c1F` (racemic) [Compound 39, Rac-(3R)-3-{6-[4-(2-{4-[6-({4-[4-(3-{[ethyl(methyl)sulfamoyl]amino}-2-fluorophenyl)-2-methyl-1,3-thiazol-5-yl]pyrimidin-2-yl}amino)pyridin-3-yl]piperazin-1-yl}-2-oxoethyl)piperidin-1-yl]pyridin-3-yl}piperidine-2,6-dione] registered a DC50 under setting [1] of under 10 nM. Also, the Dmax under setting [2] is over 70%.

The molecule `CCCS(=O)(=O)Nc1cccc(-c2nc(C(C)(C)C)sc2-c2ccnc(Nc3ccc(C4CCN(C(=O)C5CCN(c6ccc(C7CCC(=O)NC7=O)cc6)CC5)CC4)cc3)n2)c1F` (racemic) [Compound 37, Rac-N-(3-{2-tert-butyl-5-[2-({4-[1-(1-{4-[(3R)-2,6-dioxopiperidin-3-yl]phenyl}piperidine-4-carbonyl)piperidin-4-yl]phenyl}amino)pyrimidin-4-yl]-1,3-thiazol-4-yl}-2-fluorophenyl)propane-1-sulfonamide] returned a DC50 under setting [1] of 10 to 50 nM. Also, the Dmax under setting [2] lay within 30 to 70%.

In turn, `CCCS(=O)(=O)Nc1cccc(-c2nc(C)sc2-c2ccnc(Nc3ccc(C4CCN(C(=O)C5CCN(c6ccc(C7CCC(=O)NC7=O)cn6)CC5)CC4)cc3)n2)c1F` (racemic) [Compound 55, Rac-N-(3-{5-[2-({4-[1-(1-{5-[(3R)-2,6-dioxopiperidin-3-yl]pyridin-2-yl}piperidine-4-carbonyl)piperidin-4-yl]phenyl}amino)pyrimidin-4-yl]-2-methyl-1,3-thiazol-4-yl}-2-fluorophenyl)propane-1-sulfonamide] registered a DC50 under setting [1] of 10 to 50 nM. Moreover, the Dmax under setting [2] is over 70%.

`CCCS(=O)(=O)Nc1cccc(-c2cn(-c3ccc(N4CCN(CC5CCN(c6ccc([C@@H]7CCC(=O)NC7=O)cn6)CC5)CC4)cc3)nc2-c2ccncc2)c1F` [Compound 1, N-{3-[1-(4-{4-[(1-{5-[(3S)-2,6-dioxopiperidin-3-yl]pyridin-2-yl}piperidin-4-yl)methyl]piperazin-1-yl}phenyl)-3-(pyridin-4-yl)-1H-pyrazol-4-yl]-2-fluorophenyl}propane-1-sulfonamide] came in with a DC50 under setting [1] of 10 to 50 nM. This molecule registered a Dmax under setting [2] of over 70%.

In turn, `CCCS(=O)(=O)Nc1cccc(-c2nc(C(C)(C)C)sc2-c2ccnc(Nc3cccc(C4CCN(CC[C@H]5CCN(c6ccc(C7CCC(=O)NC7=O)cn6)C5)CC4)c3)n2)c1F` (mixture of isomers) [Compound 74, N-{3-[2-tert-butyl-5-(2-{[3-(1-{2-[(3S)-1-{5-[(3RS)-2,6-dioxopiperidin-3-yl]pyridin-2-yl}pyrrolidin-3-yl]ethyl}piperidin-4-yl)phenyl]amino}pyrimidin-4-yl)-1,3-thiazol-4-yl]-2-fluorophenyl}propane-1-sulfonamide] had a DC50 under setting [1] of 10 to 50 nM. In addition, under setting [2], the Dmax lay in the range of 30 to 70%.

`CCCS(=O)(=O)Nc1cccc(-c2nc(C(C)(C)C)sc2-c2ccnc(NC3CC4(C3)CN(CC[C@H]3CCN(c5ccc(C6CCC(=O)NC6=O)cn5)C3)C4)n2)c1F` (mixture of isomers) [Compound 172, N-[3-(2-tert-butyl-5-{2-[(2-{2-[(3S)-1-{5-[(3RS)-2,6-dioxopiperidin-3-yl]pyridin-2-yl}pyrrolidin-3-yl]ethyl}-2-azaspiro[3.3]heptan-6-yl)amino]pyrimidin-4-yl}-1,3-thiazol-4-yl)-2-fluorophenyl]propane-1-sulfonamide] came in with a DC50 under setting [1] of 50 to 500 nM. The molecule also yielded a Dmax under setting [2] of 30 to 70%.

Regarding `CCCS(=O)(=O)Nc1cccc(-c2nc(C(C)(C)C)sc2-c2ccnc(Nc3cnn(CC4CCN(CC5CCN(c6ccc(C(=O)NC7CCC(=O)NC7=O)nc6)CC5)CC4)c3)n2)c1F` (racemic) [Compound 82, Rac-5-(4-{[4-({4-[(4-{2-tert-butyl-4-[2-fluoro-3-(propane-1-sulfonamido)phenyl]-1,3-thiazol-5-yl}pyrimidin-2-yl)amino]-1H-pyrazol-1-yl}methyl)piperidin-1-yl]methyl}piperidin-1-yl)-N-[(3R)-2,6-dioxopiperidin-3-yl]pyridine-2-carboxamide], under setting [1], the DC50 was 10 to 50 nM. The molecule further came in with a Dmax under setting [2] of 30 to 70%.

Under setting [1], `CCCS(=O)(=O)Nc1cccc(-c2nc(C(C)(C)C)sc2-c2ccnc(Nc3cnn(CC4CCN(C(=O)C5CCN(c6ccc(C(=O)NC7CCC(=O)NC7=O)nc6)CC5)CC4)c3)n2)c1F` (racemic) [Compound 115, Rac-5-{4-[4-({4-[(4-{2-tert-butyl-4-[2-fluoro-3-(propane-1-sulfonamido)phenyl]-1,3-thiazol-5-yl}pyrimidin-2-yl)amino]-1H-pyrazol-1-yl}methyl)piperidine-1-carbonyl]piperidin-1-yl}-N-[(3R)-2,6-dioxopiperidin-3-yl]pyridine-2-carboxamide] yielded a DC50 of 50 to 500 nM. The molecule also displayed a Dmax under setting [2] of 30 to 70%.

As to `CCCS(=O)(=O)Nc1cccc(-c2nc(C3CCC4(CC3)CCN(C(=O)C[C@H]3CCN(c5ccc(C6CCC(=O)NC6=O)cc5)C3)CC4)sc2-c2ccnc(N)n2)c1F` (mixture of isomers) [Compound 253, N-{3-[5-(2-aminopyrimidin-4-yl)-2-(3-{2-[(3R)-1-{4-[(3RS)-2,6-dioxopiperidin-3-yl]phenyl}pyrrolidin-3-yl]acetyl}-3-azaspiro[5.5]undecan-9-yl)-1,3-thiazol-4-yl]-2-fluorophenyl}propane-1-sulfonamide], the DC50 under setting [3] fell in the range of 10 to 50 nM. Under setting [4], this molecule returned a Dmax of 30 to 70%.

Under setting [3], `CCCS(=O)(=O)Nc1cccc(-c2nc(C3CCC4(CC3)CCN(C(=O)CC3CCN(C5CCN(c6ccc7c(c6)C(=O)N(C6CCC(=O)NC6=O)C7=O)CC5)CC3)CC4)sc2-c2ccnc(N)n2)c1F` (racemic) [Compound 248, Rac-N-{3-[5-(2-aminopyrimidin-4-yl)-2-{3-[2-(1′-{2-[(3R)-2,6-dioxopiperidin-3-yl]-1,3-dioxo-2,3-dihydro-1H-isoindol-5-yl}-[1,4′-bipiperidin]-4-yl)acetyl]-3-azaspiro[5.5]undecan-9-yl}-1,3-thiazol-4-yl]-2-fluorophenyl}propane-1-sulfonamide] gave a DC50 of under 10 nM. This molecule also came in with a Dmax under setting [4] of over 70%.

Molecule `CCCS(=O)(=O)Nc1cccc(-c2nc(C(C)(C)C)sc2-c2ccnc(Nc3cccc(OC4CCN(C(=O)CN5CCc6cc(C7CCC(=O)NC7=O)ccc6C5)CC4)c3)n2)c1F` (racemic) [Compound 101, Rac-N-[3-(2-tert-butyl-5-{2-[(3-{[1-(2-{6-[(3R)-2,6-dioxopiperidin-3-yl]-1,2,3,4-tetrahydroisoquinolin-2-yl}acetyl)piperidin-4-yl]oxy}phenyl)amino]pyrimidin-4-yl}-1,3-thiazol-4-yl)-2-fluorophenyl]propane-1-sulfonamide] registered a DC50 under setting [1] of 10 to 50 nM. This molecule also displayed a Dmax under setting [2] of over 70%.

Regarding `CCCS(=O)(=O)Nc1cccc(-c2nc(C3CCC4(CC3)CN(C(=O)CN3CCN(c5ccc6c(c5)C(=O)N(C5CCC(=O)NC5=O)C6=O)CC3)C4)sc2-c2ccnc(N)n2)c1F` (racemic) [Compound 230, Rac-N-{3-[5-(2-aminopyrimidin-4-yl)-2-{2-[2-(4-{2-[(3R)-2,6-dioxopiperidin-3-yl]-1,3-dioxo-2,3-dihydro-1H-isoindol-5-yl}piperazin-1-yl)acetyl]-2-azaspiro[3.5]nonan-7-yl}-1,3-thiazol-4-yl]-2-fluorophenyl}propane-1-sulfonamide], under setting [1], the DC50 was under 10 nM. The same molecule returned a Dmax under setting [2] of 30 to 70%.
